Test results: US20240199647A1, “ANTI-VIRAL COMPOUNDS” (Aligos Therapeutics, Inc., priority 2022, published 2024)
Like-named read-outs stand apart in the source and are kept apart here.

Columns and labels:
[1] = test system: human beta-coronavirus OC43; assay: OC43 Coronavirus Assay in HeLa cells (antiviral, cytopathic effect, cell-titer-glo); type: cell-based; settings: Betacoronavirus 1, OC43, HeLa, Table B; OC43 coronavirus in HeLa cells, class symbols; read-out: EC50
[2] = Cytotoxicity in HeLa cells without addition of OC43 virus (in parallel); settings: human, HeLa cells, without OC43 virus
in vitro = settings: human
SARS-Cov-2 3CLpro = SARS-Cov-2 3CLpro (Severe acute respiratory syndrome coronavirus 2, UniProt P0DTD1); assay: biochemical; settings: Table A, class symbols, read-out: SARS-Cov-2 (IC50)
[3] = test system: SARS-CoV-2 B.1.1.7 lineage; assay: microbe, parasite or virus in culture; type: cell-based; settings: Severe acute respiratory syndrome coronavirus 2, Table C, SARS-CoV-2 B.1.1.7 in A549-dual_ACE2_TMPRSS2 cells, read-out: A549-dual_ACE2_TMPRSS2 (EC50)

Row | SMILES | EC50 [1] [nM] | CC50 at 6 days [2] [µM] | CC50 (in vitro) [nM] | IC50 (SARS-Cov-2 3CLpro) [nM] | EC50 ([3]; class symbols) [nM] | EC50 ([3]; cells given as a bound) [nM]
1 | CN(C(=O)CCN1CCOCC1)[C@@H](CC1CC1)C(=O)N1C[C@@]2(C[C@H]1C#N)Oc1cc(F)cc(F)c1NC2=O [Compound 132] | 1000 to 10000 | > 10 | > 1000 | 20 to 200 | 100 to 1000 | –
2 | CN(C(=O)c1cc2cccc(Cl)c2[nH]1)[C@@H](CC1CC1)C(=O)N1C[C@@]2(C[C@H]1C#N)Oc1cc(F)cc(F)c1NC2=O [Compound 133] | 100 to 1000 | > 10 | > 1000 | < 20 | 100 to 1000 | –
3 | COc1ccc(Cl)c2[nH]c(C(=O)N(C)[C@@H](CC3CC3)C(=O)N3C[C@@]4(C[C@H]3C#N)Oc3cc(F)cc(F)c3NC4=O)cc12 [Compound 135] | < 100 | > 10 | > 1000 | < 20 | 100 to 1000 | –
4 | CN(C(=O)C(O)c1ccc(F)cc1)[C@@H](CC1CC1)C(=O)N1C[C@@]2(C[C@H]1C#N)Oc1cc(F)cc(F)c1NC2=O (stereo partly shown) [Compound 136] | 100 to 1000 | > 10 | > 1000 | < 20 | 100 to 1000 | –
5 | CN(C(=O)c1cc2cccnc2[nH]1)[C@@H](CC1CC1)C(=O)N1C[C@@]2(C[C@H]1C#N)Oc1cc(F)cc(F)c1NC2=O [Compound 137] | 1000 to 10000 | > 10 | > 1000 | 20 to 200 | 100 to 1000 | –
6 | CN(C(=O)C(O)C(C)(C)C)[C@@H](CC1CC1)C(=O)N1C[C@@]2(C[C@H]1C#N)Oc1cc(F)cc(F)c1NC2=O (stereo partly shown) [Compound 138] | 100 to 1000 | > 10 | > 1000 | < 20 | 100 to 1000 | –
7 | COC(=O)N[C@@H](CC1CC1)C(=O)N(C)[C@@H](CC1CC1)C(=O)N1C[C@@]2(C[C@H]1C#N)Oc1ccccc1CNC2=O [Compound 139] | < 100 | > 10 | > 1000 | < 20 | 100 to 1000 | –
8 | CN(C(=O)c1cc2c(F)cc(F)c(F)c2[nH]1)[C@@H](CC1CC1)C(=O)N1C[C@@]2(C[C@H]1C#N)Oc1ccccc1CNC2=O [Compound 140] | < 100 | > 10 | > 1000 | < 20 | < 100 | –
9 | CN(C(=O)[C@H](CC1CC1)NC(=O)C(F)(F)F)[C@@H](CC1CC1)C(=O)N1C[C@@]2(C[C@H]1C#N)Oc1cccc(F)c1CNC2=O [Compound 141] | < 100 | > 10 | > 1000 | < 20 | 100 to 1000 | –
10 | CN(C(=O)[C@H](CC1CC1)NC(=O)C(F)(F)F)[C@@H](CC1CC1)C(=O)N1C[C@@]2(C[C@H]1C#N)Oc1cc(F)ccc1CNC2=O [Compound 142] | < 100 | > 10 | > 1000 | < 20 | < 100 | –
11 | CN(C(=O)[C@H](CC1CC1)NC(=O)C(F)(F)F)[C@@H](CC1CC1)C(=O)N1C[C@@]2(C[C@H]1C#N)Oc1cc(C(=O)N3CCOCC3)ccc1NC2=O [Compound 143] | < 100 | > 10 | > 1000 | < 20 | 100 to 1000 | –
12 | C[C@H](NC(=O)C(F)(F)F)C(=O)N(C)[C@@H](CC1CC1)C(=O)N1C[C@@]2(C[C@H]1C#N)Oc1cc(F)cnc1NC2=O [Compound 144] | < 100 | > 10 | > 1000 | < 20 | 100 to 1000 | –
13 | Cc1cn([C@@H](CC2CC2)C(=O)N(C)[C@@H](CC2CC2)C(=O)N2C[C@@]3(C[C@H]2C#N)Oc2cc(F)cc(F)c2NC3=O)nn1 [Compound 146] | 100 to 1000 | > 10 | > 1000 | < 20 | 100 to 1000 | –
14 | C[C@H](NC(=O)C(F)(F)F)C(=O)N(C)[C@@H](CC1CC1)C(=O)N1C[C@@]2(C[C@H]1C#N)Oc1cc(Cl)cnc1NC2=O [Compound 147] | < 100 | > 10 | > 1000 | < 20 | < 100 | –
15 | COc1ccc(C[C@@H](NC(=O)C(F)(F)F)C(=O)N(C)[C@@H](CC2CC2)C(=O)N2C[C@@]3(C[C@H]2C#N)Oc2cccnc2NC3=O)cc1 [Compound 149] | < 100 | > 10 | > 1000 | < 20 | < 100 | –
16 | CN(C(=O)[C@H](CC(C)(C)C)n1cc(C2CC2)nn1)[C@@H](CC1CC1)C(=O)N1C[C@@]2(C[C@H]1C#N)Oc1cc(F)cc(F)c1NC2=O [Compound 150] | < 100 | > 10 | > 1000 | < 20 | < 100 | –

Row | SMILES | EC50 [1] [nM] | CC50 at 6 days [2] [µM] | CC50 (in vitro) [nM] | IC50 (SARS-Cov-2 3CLpro) [nM] | EC50 ([3]; class symbols) [nM] | EC50 ([3]; cells given as a bound) [nM]
17 | C[C@H](NC(=O)C(F)(F)F)C(=O)N(C)[C@H](C(=O)N1C[C@@]2(C[C@H]1C#N)Oc1cc(F)cc(F)c1NC2=O)[C@@H](C)OC(C)(C)C [Compound 154] | 1000 to 10000 | > 10 | > 1000 | 200 to 2000 | – | > 1000
18 | C[C@@H](C(=O)N(C)[C@@H](CC1CC1)C(=O)N1C[C@@]2(C[C@H]1C#N)Oc1cccnc1NC2=O)n1cc(C2CC2)nn1 [Compound 155] | 100 to 1000 | > 10 | > 1000 | 20 to 200 | 100 to 1000 | –
19 | CN(C(=O)[C@@H](COC(C)(C)C)NC(=O)C(F)(F)F)[C@@H](CC1CC1)C(=O)N1C[C@@]2(C[C@H]1C#N)Oc1cccnc1NC2=O [Compound 156] | < 100 | > 10 | > 1000 | < 20 | 100 to 1000 | –
20 | CN(C(=O)[C@H](CC1CC1)n1cc(C(F)(F)F)nn1)[C@@H](CC1CC1)C(=O)N1C[C@@]2(C[C@H]1C#N)Oc1cc(F)cc(F)c1NC2=O [Compound 157] | < 100 | > 10 | > 1000 | < 20 | < 100 | –
21 | CN(C(=O)[C@H](COC(C)(C)C)NC(=O)C(F)(F)F)[C@@H](CC1CC1)C(=O)N1C[C@@]2(C[C@H]1C#N)Oc1cc(F)cc(F)c1NC2=O [Compound 158] | < 100 | > 10 | > 1000 | < 20 | < 100 | –
22 | C[C@@H](OC(C)(C)C)[C@H](NC(=O)C(F)(F)F)C(=O)N(C)[C@@H](CC1CC1)C(=O)N1C[C@@]2(C[C@H]1C#N)Oc1cc(F)cc(F)c1NC2=O [Compound 159] | 100 to 1000 | > 10 | > 1000 | < 20 | < 100 | –
23 | C[C@H](NC(=O)C(F)(F)F)C(=O)N(C)[C@@H](CC1CC1)C(=O)N1C[C@@]2(C[C@H]1C#N)Oc1ccccc1NC2=O [Compound 160] | < 100 | > 10 | > 1000 | < 20 | < 100 | –
24 | C[C@H](NC(=O)C(F)(F)F)C(=O)N(C)[C@@H](CC1CC1)C(=O)N1C[C@@]2(C[C@H]1C#N)Oc1ccccc1CNC2=O [Compound 163] | < 100 | > 10 | > 1000 | < 20 | 100 to 1000 | –
25 | CN(C(=O)[C@H](CC1CC1)NC(=O)C(F)(F)F)[C@@H](CC(C)(C)C)C(=O)N1C[C@@]2(C[C@H]1C#N)Oc1ccccc1CNC2=O [Compound 164] | < 100 | > 10 | > 1000 | < 20 | < 100 | –
26 | C[C@H](NC(=O)C(F)(F)F)C(=O)N(C)[C@@H](CC1CCC1)C(=O)N1C[C@@]2(C[C@H]1C#N)Oc1cccnc1NC2=O [Compound 165] | < 100 | > 10 | > 1000 | < 20 | < 100 | –
27 | C[C@H](NC(=O)C(F)(F)F)C(=O)N(C)[C@@H](CC(C)(C)C)C(=O)N1C[C@@]2(C[C@H]1C#N)Oc1cccnc1NC2=O [Compound 166] | < 100 | > 10 | > 1000 | < 20 | 100 to 1000 | –
28 | CN(C(=O)[C@H](CC1CC1)NC(=O)C(F)(F)F)[C@@H](CC1CC1)C(=O)N1C[C@@]2(C[C@H]1C#N)Oc1ccc(F)cc1CNC2=O [Compound 167] | < 100 | > 10 | > 1000 | < 20 | 100 to 1000 | –
29 | CN(C(=O)[C@H](CC1CC1)NC(=O)C(F)(F)F)[C@@H](CC1CC1)C(=O)N1C[C@@]2(C[C@H]1C#N)Oc1c(F)cccc1CNC2=O [Compound 168] | < 100 | > 10 | > 1000 | < 20 | < 100 | –
30 | C[C@H](NC(=O)C1(F)CC1)C(=O)N(C)[C@@H](CC1CC1)C(=O)N1C[C@@]2(C[C@H]1C#N)Oc1cccnc1NC2=O [Compound 169] | < 100 | > 10 | > 1000 | < 20 | 100 to 1000 | –
31 | C[C@H](NC(=O)C(F)(F)C(F)(F)F)C(=O)N(C)[C@@H](CC1CC1)C(=O)N1C[C@@]2(C[C@H]1C#N)Oc1cccnc1NC2=O [Compound 170] | < 100 | > 10 | > 1000 | < 20 | < 100 | –
32 | CN(C(=O)c1cnc(C(F)(F)F)[nH]1)[C@@H](CC1CC1)C(=O)N1C[C@@]2(C[C@H]1C#N)Oc1cc(F)cc(F)c1NC2=O [Compound 171] | 1000 to 10000 | > 10 | > 1000 | 20 to 200 | – | > 1000
